These results are taken from patent US10662168B2, “Compounds for treating parasitic infections” (University of Maryland, College Park, priority 2015, dated 2020).

For series [1], the system named is intracellular forms of Leishmania (L. amazonensis amastigotes in BMDMs). In words: Dose response in BMDMs infected with L. amazonensis amastigotes, released amastigotes transformed to promastigotes, AlamarBlue. In kind it is cell-based. On the procedure: (§1) FIG. 5. Dose response curves (IC50) of FX40 (∘) and the novel derivative compound FX104 (●). (A) BMDMs infected with L. amazonensis amastigotes were treated with various concentrations of the indicated compound for 72 h. BMDMs were lysed and released amastigotes were transformed to promastigotes for 48 h at 26° C. IC50 values were calculated by quantitation of % promastigote growth using AlamarBlue. (B) Dose response of uninfected BMDMs to compounds. (C) A table showing selectivity criteria for drug efficacy studies. (D) A table showing a summary of high throughput screening.
(§2) To validate the […] efficacy of lead compounds against intracellular amastigotes in macrophages, primary bone marrow-derived macrophages (BMDMs) from mice were obtained and infected them with L. amazonensis amastigotes followed by incubation for 72 h with LHR1 antagonists or amphotericin B which kills intracellular Leishmania, as a positive control. Cells were then fixed and stained with DAPI which permits visualization of the host macrophage nuclei and parasite nuclei and kinetoplasts. Images collected with fluorescent microscopy were used to determine the ratio between total number of parasites and total number of host cells per treatment. Toxicity to host cells were measured by AlamarBlue viability assays. […] (Sch. 1 and FIG. 4A) The structure of FX104 is shown in Scheme 1.

The test system of series [2] is BMDMs. The series can be described thus: Toxicity to uninfected host BMDMs (AlamarBlue viability). In kind it is cell-based, mouse. The conditions noted are these: even at 40-fold greater concentrations. On the procedure:
as §1, §2
A general note: Resazurin is reduced to fluorescent resorufin, in cell work by metabolically active cells.

Series [3] is described as follows: Drug-like parameters: Log P and solubility. Format: physicochemical.
A short description of series [4]: Drug-like parameters: absorption and metabolic stability. Format: in vitro ADME.
Series [5] concerns the target P-gp (Homo sapiens, UniProt P08183). The series can be described thus: Drug-like parameters: P-gp efflux. Format: in vitro ADME.
The test system of series [6] is intracellular forms of Leishmania (L. amazonensis amastigotes in BMDMs). The conditions noted are these: benchmark value; read-out: IC50 against intra-macrophage L. amazonensis; cited from earlier work.
For series [7], the system named is intracellular L. donovani. The settings on record: cited from earlier work.

Where two headings read alike, the source gives them in different places. Where only a bound is given, the exact number is not on record here.

Sequence of P-gp (P08183 whole entry): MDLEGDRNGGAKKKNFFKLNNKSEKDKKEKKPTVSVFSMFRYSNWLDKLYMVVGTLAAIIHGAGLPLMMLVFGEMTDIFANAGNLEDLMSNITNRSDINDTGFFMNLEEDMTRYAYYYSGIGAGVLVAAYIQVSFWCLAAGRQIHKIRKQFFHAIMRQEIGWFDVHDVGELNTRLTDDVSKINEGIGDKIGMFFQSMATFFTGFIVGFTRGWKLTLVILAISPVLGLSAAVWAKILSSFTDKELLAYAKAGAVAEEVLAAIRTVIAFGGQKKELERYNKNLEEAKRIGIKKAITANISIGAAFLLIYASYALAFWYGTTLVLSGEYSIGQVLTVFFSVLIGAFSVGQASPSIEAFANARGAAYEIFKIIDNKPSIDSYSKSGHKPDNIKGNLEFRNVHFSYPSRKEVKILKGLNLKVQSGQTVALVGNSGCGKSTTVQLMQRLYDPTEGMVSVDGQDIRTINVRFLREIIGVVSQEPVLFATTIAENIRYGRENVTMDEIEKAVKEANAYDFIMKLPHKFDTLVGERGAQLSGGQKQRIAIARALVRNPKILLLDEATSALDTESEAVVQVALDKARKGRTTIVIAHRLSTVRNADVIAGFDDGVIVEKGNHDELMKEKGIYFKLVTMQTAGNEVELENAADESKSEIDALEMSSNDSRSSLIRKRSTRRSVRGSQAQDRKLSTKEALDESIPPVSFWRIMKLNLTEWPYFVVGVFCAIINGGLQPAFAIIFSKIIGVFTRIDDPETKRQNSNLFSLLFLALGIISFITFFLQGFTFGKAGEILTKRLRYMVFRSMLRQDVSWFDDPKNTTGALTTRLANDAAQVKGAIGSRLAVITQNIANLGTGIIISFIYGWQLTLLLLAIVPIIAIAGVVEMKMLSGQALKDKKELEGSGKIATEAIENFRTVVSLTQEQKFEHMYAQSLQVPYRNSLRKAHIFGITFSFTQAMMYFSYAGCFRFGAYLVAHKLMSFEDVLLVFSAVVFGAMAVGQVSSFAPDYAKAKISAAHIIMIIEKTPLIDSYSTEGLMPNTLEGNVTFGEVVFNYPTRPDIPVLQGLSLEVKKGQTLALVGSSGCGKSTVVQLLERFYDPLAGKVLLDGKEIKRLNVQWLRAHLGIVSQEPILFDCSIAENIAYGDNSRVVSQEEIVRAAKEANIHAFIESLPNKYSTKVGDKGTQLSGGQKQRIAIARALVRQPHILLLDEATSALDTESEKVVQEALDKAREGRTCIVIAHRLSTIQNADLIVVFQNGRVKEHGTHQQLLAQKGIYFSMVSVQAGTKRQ

In the case of `Cc1ccc([C@]2(NCCN(C)C)OC(=O)c3cccc(F)c32)cc1C` [FX104], in series [1] (BMDM, BMDMs infected with L. amazonensis amastigotes, 72 h, read-out: IC50 against intracellular forms of Leishmania), the IC50 came out at 250 nM. Besides, in series [1] (FX104 versus FX40), the “fold more effective against intracellular forms of Leishmania than FX40” value is listed as “over 30 fold”. Also, the “toxicity in BMDMs” value in series [2] is recorded as “little or no toxicity”. For the same compound, the solubility entry in series [3] is “better”. Besides, in series [4], the absorption entry is on record as “better” and the metabolic stability entry is listed as “better”. Moreover, the P-gp efflux entry in series [5] was “decreased”.

As to `C[C@@H]1[C@H](O)[C@@H](C)/C=C/C=C/C=C/C=C/C=C/C=C/C=C/[C@H](O[C@@H]2O[C@H](C)[C@@H](O)[C@H](N)[C@@H]2O)C[C@@H]2O[C@](O)(C[C@@H](O)C[C@@H](O)[C@H](O)CC[C@@H](O)C[C@@H](O)CC(=O)O[C@H]1C)C[C@H](O)[C@H]2C(=O)O` [Amphotericin B], the IC50 is 50 to 100 nM in series [6] and 20 to 60 nM in series [7] (benchmark value, read-out: IC50 for intra-macrophage L. donovani). In series [7] (benchmark, intra-macrophage Leishmania), the efficacy is over 90%.

As a reminder, the IC50 is the concentration needed to halve the response being measured.
